Measurements published in patent US11447465B2, “Pharmaceutical compounds for treatment of medical disorders” (Achillion Pharmaceuticals, Inc., priority 2017, dated 2022).

What follows are molecules tested against Human Factor D (Homo sapiens (Human), UniProt P00746) (assay: Human Factor D Assay). Conditions: Table 7; read-out: IC5 (Stars).
Type: biochemical
Method in brief: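 Serum-purified human factor D (80 nM final) preincubated with compound 5 min at room temperature in 50 mM Tris, 1 M NaCl, pH 7.5. Z-L-Lys-SBzl and DTNB added at 100 μM each; A405 followed every 30 s for 30 min. IC50 by nonlinear regression of rates.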

Human Factor D, sequence (P00746 26-253): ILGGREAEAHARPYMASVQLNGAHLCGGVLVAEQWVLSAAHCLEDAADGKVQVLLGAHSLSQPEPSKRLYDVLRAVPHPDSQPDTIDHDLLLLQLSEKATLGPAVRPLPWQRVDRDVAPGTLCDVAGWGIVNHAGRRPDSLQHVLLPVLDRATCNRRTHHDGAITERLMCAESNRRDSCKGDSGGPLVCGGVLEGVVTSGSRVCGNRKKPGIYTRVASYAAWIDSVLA

SMILES | IC50
CC(=O)c1nn(CC(=O)N2[C@H](C(=O)Nc3nc(Br)ccc3C)C[C@@]3(C)C[C@@H]23)c2ccc(Nc3cccn(-c4ccccn4)c3=O)cc12 [Compound T-92, (1R,3S,5R)-2-(2-(3-acetyl-5-((2-oxo-2H-[1,2′-bipyridin]-3-yl)amino)-1H-indazol-1-yl)acetyl)-N-(6-bromo-3-methylpyridin-2-yl)-5-methyl-2-azabicyclo[3.1.0]hexane-3-carboxamide] | < 1000 nM
CC(=O)c1nn(CC(=O)N2[C@H](C(=O)Nc3nc(Br)ccc3C)C[C@@]3(C)C[C@@H]23)c2cc3nc(C)oc3cc12 [Compound T-93, (1R,3S,5R)-2-(2-(3-acetyl-6-methyl-1H-oxazolo[5,4-f]indazol-1-yl)acetyl)-N-(6-bromo-3-methylpyridin-2-yl)-5-methyl-2-azabicyclo[3.1.0]hexane-3-carboxamide] | < 1000 nM
Cc1ccc(Br)nc1NC(=O)[C@@H]1C[C@@]2(C)C[C@H]2N1C(=O)Cc1ccc2[nH]nc(C#N)c2c1 [Compound T-94, (1R,3S,5R)-N-(6-bromo-3-methylpyridin-2-yl)-2-(2-(3-cyano-1H-indazol-5-yl)acetyl)-5-methyl-2-azabicyclo[3.1.0]hexane-3-carboxamide] | > 10000 nM
Cc1ccc(Br)nc1NC(=O)[C@@H]1C[C@@]2(C)C[C@H]2N1C(=O)Cc1cccc(-c2cnc(O)nc2)c1 [Compound T-96, (1R,3S,5R)-N-(6-bromo-3-methylpyridin-2-yl)-2-(2-(3-(2-hydroxypyrimidin-5-yl)phenyl)acetyl)-5-methyl-2-azabicyclo[3.1.0]hexane-3-carboxamide] | > 10000 nM
Cc1ccc(Br)nc1NC(=O)[C@@H]1C[C@@]2(C)C[C@H]2N1C(=O)Cc1ccc2[nH]nc(C(N)=O)c2c1 [Compound T-98, 5-(2-((1R,3S,5R)-3-((6-bromo-3-methylpyridin-2-yl)carbamoyl)-5-methyl-2-azabicyclo[3.1.0]hexan-2-yl)-2-oxoethyl)-1H-indazole-3-carboxamide] | > 10000 nM
Cc1ccc(Br)nc1NC(=O)[C@@H]1C[C@@]2(C)C[C@H]2N1C(=O)Cc1ccc2[nH]nc(Cl)c2c1 [Compound T-99, (1R,3S,5R)-N-(6-bromo-3-methylpyridin-2-yl)-2-(2-(3-chloro-1H-indazol-5-yl)acetyl)-5-methyl-2-azabicyclo[3.1.0]hexane-3-carboxamide] | 1000 to 10000 nM
Cc1cc2c(s1)c(C(N)=O)nn2CC(=O)N1[C@H](C(=O)Nc2nc(Br)ccc2C)C[C@@]2(CNC(=O)COCCOCCNC(=O)COCCOCCNC(=O)CC[C@H](NC(=O)CCCCCCCCCCCCCCCCC(=O)O)C(=O)O)C[C@@H]12 [Compound T-100, (S)-1-((1R,3S,5R)-3-((6-bromo-3-methylpyridin-2-yl)carbamoyl)-2-(2-(3-carbamoyl-5-methyl-1H-thieno[3,2-c]pyrazol-1-yl)acetyl)-2-azabicyclo[3.1.0]hexan-5-yl)-24-carboxy-3,12,21,26-tetraoxo-5,8,14,17-tetraoxa-2,11,20,25-tetraazatritetracontan-43-oic acid] | < 1000 nM
CC(=O)c1nn(CC(=O)N2[C@H](C(=O)Nc3nc(Br)ccc3C)C[C@@]3(C)C[C@@H]23)c2cc3nc(C)sc3cc12 [Compound T-103, (1R,3S,5R)-2-(2-(3-acetyl-6-methyl-1H-thiazolo[5,4-f]indazol-1-yl)acetyl)-N-(6-bromo-3-methylpyridin-2-yl)-5-methyl-2-azabicyclo[3.1.0]hexane-3-carboxamide] | < 1000 nM
Cc1ncc(-c2cc(CC(=O)N3C[C@H](F)C[C@H]3C(=O)Nc3cccc(-c4ccccc4Cl)c3F)cc(-c3cnc(C)nc3)c2)cn1 [Compound T-104, (2S,4R)-1-(2-(3,5-bis(2-methylpyrimidin-5-yl)phenyl)acetyl)-N-(2′-chloro-2-fluoro-[1,1′-biphenyl]-3-yl)-4-fluoropyrrolidine-2-carboxamide] | > 10000 nM
CC(=O)c1cc(CC(=O)N2C[C@H](F)C[C@H]2C(=O)Nc2cccc(Br)n2)cc(-c2cnc(C)nc2)c1 [Compound T-105, (2S,4R)-1-(2-(3-acetyl-5-(2-methylpyrimidin-5-yl)phenyl)acetyl)-N-(6-bromopyridin-2-yl)-4-fluoropyrrolidine-2-carboxamide] | < 1000 nM
CC(=O)c1cc(CC(=O)N2[C@H](C(=O)Nc3nc(Br)ccc3C)C[C@@]3(C)C[C@@H]23)cc(-c2cnc(C)nc2)c1 [Compound T-106, (1R,3S,5R)-2-(2-(3-acetyl-5-(2-methylpyrimidin-5-yl)phenyl)acetyl)-N-(6-bromo-3-methylpyridin-2-yl)-5-methyl-2-azabicyclo[3.1.0]hexane-3-carboxamide] | < 1000 nM

Next, values leading:

IC50 | SMILES
> 10000 nM | Cc1ccc(Br)nc1NC(=O)C1CC2(C)CC2N1C(=O)Cn1nc(NCCC(=O)O)c2ccncc21 (stereo not drawn) [Compound T-90, 3-((1-(2-(3-((6-bromo-3-methylpyridin-2-yl)carbamoyl)-5-methyl-2-azabicyclo[3.1.0]hexan-2-yl)-2-oxoethyl)-1H-pyrazolo[3,4-c]pyridin-3-yl)amino)propanoic acid]
> 10000 nM | Cc1ccc(Br)nc1NC(=O)[C@@H]1C[C@@]2(C)C[C@H]2N1C(=O)Cc1cccc(-c2nnn[nH]2)c1 [Compound T-91, (1R,3S,5R)-2-(2-(3-(1H-tetrazol-5-yl)phenyl)acetyl)-N-(6-bromo-3-methylpyridin-2-yl)-5-methyl-2-azabicyclo[3.1.0]hexane-3-carboxamide]
> 10000 nM | COc1ncc(-c2cccc(CC(=O)N3[C@H](C(=O)Nc4nc(Br)ccc4C)C[C@@]4(C)C[C@@H]34)c2)cn1 [Compound T-95, (1R,3S,5R)-N-(6-bromo-3-methylpyridin-2-yl)-2-(2-(3-(2-methoxypyrimidin-5-yl)phenyl)acetyl)-5-methyl-2-azabicyclo[3.1.0]hexane-3-carboxamide]
1000 to 10000 nM | COc1cc(CC(=O)N2[C@H](C(=O)Nc3nc(Br)ccc3C)C[C@@]3(C)C[C@@H]23)cc(-c2cnc(OC)nc2)c1 [Compound T-97, (1R,3S,5R)-N-(6-bromo-3-methylpyridin-2-yl)-2-(2-(3-methoxy-5-(2-methoxypyrimidin-5-yl)phenyl)acetyl)-5-methyl-2-azabicyclo[3.1.0]hexane-3-carboxamide]
< 1000 nM | COc1cc(CC(=O)N2[C@H](C(=O)Nc3nc(Br)ccc3C)C[C@@]3(C)C[C@@H]23)cc(-c2cnc(O)nc2)c1 [Compound T-101, (1R,3S,5R)-N-(6-bromo-3-methylpyridin-2-yl)-2-(2-(3-(2-hydroxypyrimidin-5-yl)-5-methoxyphenyl)acetyl)-5-methyl-2-azabicyclo[3.1.0]hexane-3-carboxamide]
1000 to 10000 nM | Cc1ccc(Br)nc1NC(=O)[C@@H]1C[C@@]2(C)C[C@H]2N1C(=O)Cc1ccc2[nH]nc(C(=O)O)c2c1 [Compound T-102, 5-(2-((1R,3S,5R)-3-((6-bromo-3-methylpyridin-2-yl)carbamoyl)-5-methyl-2-azabicyclo[3.1.0]hexan-2-yl)-2-oxoethyl)-1H-indazole-3-carboxylic acid]
< 1000 nM | CC(=O)c1cc(CC(=O)N2C[C@H](F)C[C@H]2C(=O)Nc2cccc(-c3ccccc3Cl)c2F)cc(-c2cnc(C)nc2)c1 [Compound T-107, (2S,4R)-1-(2-(3-acetyl-5-(2-methylpyrimidin-5-yl)phenyl)acetyl)-N-(2′-chloro-2-fluoro-[1,1′-biphenyl]-3-yl)-4-fluoropyrrolidine-2-carboxamide]
